Biological target: T1, SHIP1 (Mus musculus, UniProt Q9ES52)
T1 construct: The asterisk in lanes 1 and 3 indicates the ˜145 kD full-length SHIP protein; His tag (C); made in house; host or cells: E. coli Rosetta-Gami 2 (DE3) pLys
T1 sequence (Q9ES52 1-1191): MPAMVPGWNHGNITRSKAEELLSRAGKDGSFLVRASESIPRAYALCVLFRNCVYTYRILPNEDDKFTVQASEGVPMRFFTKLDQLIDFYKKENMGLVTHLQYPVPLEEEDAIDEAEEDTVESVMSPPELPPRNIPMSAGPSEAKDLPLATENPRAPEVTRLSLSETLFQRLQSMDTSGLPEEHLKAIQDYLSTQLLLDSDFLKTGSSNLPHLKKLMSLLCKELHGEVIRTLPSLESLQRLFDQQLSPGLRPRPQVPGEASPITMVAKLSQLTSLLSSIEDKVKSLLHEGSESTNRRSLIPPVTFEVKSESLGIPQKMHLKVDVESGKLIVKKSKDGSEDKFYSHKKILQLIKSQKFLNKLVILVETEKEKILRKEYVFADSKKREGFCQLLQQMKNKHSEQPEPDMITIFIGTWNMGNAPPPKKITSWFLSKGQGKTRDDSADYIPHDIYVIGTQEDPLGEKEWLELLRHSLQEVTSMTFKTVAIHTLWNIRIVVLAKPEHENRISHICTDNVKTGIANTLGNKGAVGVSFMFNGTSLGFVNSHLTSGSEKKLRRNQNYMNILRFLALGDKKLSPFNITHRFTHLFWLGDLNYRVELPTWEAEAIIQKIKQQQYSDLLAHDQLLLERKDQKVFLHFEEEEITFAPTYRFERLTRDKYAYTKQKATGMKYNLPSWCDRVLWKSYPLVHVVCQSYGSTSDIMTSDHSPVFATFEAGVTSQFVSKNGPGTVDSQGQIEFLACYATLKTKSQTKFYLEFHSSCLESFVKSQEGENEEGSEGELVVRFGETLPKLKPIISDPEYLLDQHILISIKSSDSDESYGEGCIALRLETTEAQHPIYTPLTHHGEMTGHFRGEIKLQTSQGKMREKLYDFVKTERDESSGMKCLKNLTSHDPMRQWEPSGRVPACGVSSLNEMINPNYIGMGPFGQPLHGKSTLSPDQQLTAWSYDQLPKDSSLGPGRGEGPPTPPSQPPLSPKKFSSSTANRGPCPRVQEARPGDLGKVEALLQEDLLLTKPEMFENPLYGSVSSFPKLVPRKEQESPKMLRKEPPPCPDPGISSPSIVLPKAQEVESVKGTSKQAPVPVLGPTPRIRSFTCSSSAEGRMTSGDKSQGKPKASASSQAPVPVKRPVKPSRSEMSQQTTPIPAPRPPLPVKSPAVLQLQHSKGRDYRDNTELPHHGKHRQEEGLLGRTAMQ
Assay: Fluorescence polarization (FP) assay of SHIP1 enzymatic activity
Format: biochemical
Settings: for SHIP inhibitory activity in FP assay: confirmatory FP assay of screening hits
Excerpt: SHIP is detectable in this expression system as a ˜145 kD protein (FIG. 1a, lane 1). Because of an in-frame Histidine (His) tag on the COOH terminus of SHIP, it can then be purified from E. coli lysates by FPLC over a Ni-containing resin. (FIG. 1a, lane 3). Purified SHIP was routinely obtained in sufficient quantities, using this E. coli expression system and FPLC purification, to conduct high-throughput screening (HTS) of chemical libraries for compounds that inhibit SHIP activity. However, prior to screening, a fluorescence polarization (FP) assay that detects SHIP activity in either a 96- or […] format, seen in FIG. 1b, screen was established. SHIP generates PI(3,4)P2 from its PI(3,4,5)P3 substrate. In the FP assay enzymatic generation of PI(3,4)P2 by SHIP reduces polarized fluorescence (mP) because the fluorescent PI(3,4)P2 “probe” is displaced from a detector protein that binds specifically to PI(3,4)P2. The FP assay is highly specific for SHIP activity in these lysates. No significant 5′-inositol phosphatase activity was detected in E. coli lysates harboring an ‘empty’ pet24b expression vector insert when FPLC fractions where SHIP typically elutes with the imidazole step gradient are analyzed in the FP assay (FIG. 1c).
After preparing purified SHIP and establishing the FP assay, two different chemical libraries, comprising a total of ˜2100 different chemical compounds, were screened. Seventeen compounds capable of inhibiting SHIP activity at μM concentrations were identified in this screen. The compounds were verified for SHIP activity inhibition by repeating the FP assay with the compounds obtained from their respective wells in the replicates of the masterplates for these libraries FIGS. 2-6).
A fluorescence polarization (FP) assay to detect and quantify SHIP2 activity has been previously described [Drees B E, et al., Comb Chem High Throughput Screen (2003) 6(4):321-330], but no assay has been described for the detection of SHIP1. A fluorescence polarization (FP) assay was developed to detect the activity of recombinant SHIP1 (see FIGS. 15a and b) and the FP assay was utilized as a rapid screen to detect compounds in chemical libraries that have inhibitory activity against SHIP1. This screen identified 3α-aminocholestane as a potent inhibitor of SHIP1 enzymatic activity (FIG. 15c). […] This high degree of selectivity could be important, since loss of PTEN function promotes malignancy in parenchymal and hematopoietic tissues. [Yuan T L & Cantley L C Oncogene (2008) 27(41):5497-5510; Zhang J, et al., Nature (2006) 441(7092):518-522; Yilmaz O H, et al., Nature (2006) 441(7092):475-482]
Assay of SHIP1 enzymatic activity: A fluorescent polarization (FP) assay that detects the 5′-inositol phosphatase activity of SHIP1 was developed based on a previously established protocol [Drees B E, et al., Comb Chem High Throughput Screen (2003) 6(4):321-330] and was obtained from Echelon Biosciences (Salt Lake City, USA). Modifications of the protocol included the application of SHIP1 in the assay and an increase in the concentration of MgCl2 to […] to maximize the activity of SHIP1 in this assay. Each enzymatic reaction was performed in a 96 well working plate and added in the following order and concentration: Recombinant SHIP1 (0.1 μg) in PBS+20 mM MgCl2, 100 μM of each individual compound from the NCI Diversity Set and then PI(3,4,5)P3 substrate diluted 1:10 in H2O. The enzymatic reaction was incubated for 30 min at room temperature. The detector, reaction mixture and probe were then combined according to the SHIP2 protocol. Malachite Green Phosphatase Assay Kit was obtained from Echelon Biosciences (Salt Lake City, USA). Assays for SHIP2 were performed according to the manufacturer's protocol. The concentration of SHIP1 and SHIP2 per reaction mixture was […]. PTEN was used at the concentration recommended by the manufacturer.

SHIP inhibitory activity in FP assay (listed as NSC 13480) | Structure (SMILES) | SHIP inhibitory activity in FP assay | concentration with detectable inhibitory activity against SHIP1 (0.1 μg of recombinant SHIP1, FP assay) [µM] | inhibition of SHIP1 activity (at 100 μM in the FP assay) | SHIP inhibitory activity in FP assay (listed as NSC 23922)
SHIP inhibitory activity | OC(c1cc(-c2ccccc2)nc2c1ccc1ccccc12)C1CCCCN1 (stereo not drawn) [NSC13480, (2-phenylbenzo[h]quinolin-4-yl)-piperidin-2-ylmethanol] | inhibit both SHIP1 and SHIP2 enzymatic activity |  |  | 
 | CC(C)CCC[C@@H](C)[C@H]1CC[C@H]2[C@@H]3CC[C@H]4C[C@H](N)CC[C@]4(C)[C@H]3CC[C@]12C [NSC23922, (3R,5S,8R,9S,10S,13R,14S,17R)-10,13-dimethyl-17-[(2R)-6-methylheptan-2-yl]-2,3,4,5,6,7,8,9,11,12,14,15,16,17-tetradecahydro-1H-cyclopenta[a]phenanthren-3-amine] | inhibit both SHIP1 and SHIP2 enzymatic activity | 2 | inhibits SHIP1 activity | SHIP inhibitory activity
